Assay results reported in patent US8415295B2, “Heterocyclic boronic acid compounds” (Phenomix Corporation, priority 2003, dated 2013).

Experiment: Dependence of aminoboronate (closed) and boronic acid (open) forms on pH, 1H-NMR in D2O phosphate
Type: physicochemical
Conditions: 0.4 M Na2HPO4 in D2O, three days in the dark, FIG. 1
Experimental: A 0.4 M stock solution of Na2HPO4 was prepared by dissolving 909 mg of salt in 16 mL of D2O. pH was adjusted to the desired value by dropwise addition of either […] in D2O or 5% DCl in D2O. The pH values were measured with a Fisher Scientific Accumet AB15 pH meter. Aliquots of the stock solution (4 mL) were prepared and 8 mg of compound 4 in the closed form (aminoboronate) were added to each one. The scintillation vials were capped, sealed with parafilm and allowed to stand in the dark for three days. After this time pH was measured again. The open/closed (i.e., linear/cyclic) ratio of compound 4 isomers at each pH was determined by recording the corresponding ^1H-NMR spectra in a Varian AS 500 MHz instrument and measuring the ratio of the integrals of the peaks at 2.90-2.95 ppm and 2.40-2.50 ppm characteristic of the open and closed forms, respectively.

SMILES: O=C(CNC1CCCC1)N1CCC[C@H]1B(O)O [Compound 4, (2R)-1-(2-Cyclopentylamino-acetyl)-boroPro-OH]
- open/closed (linear/cyclic) ratio of isomers at each pH: the closed form predominates at higher pHs such as physiological pH, whereas the open form predominates at lower pHs
